Experimental data reported in ChEMBL document CHEMBL1909046, “DrugMatrix in vitro pharmacology data”.

Tests used:
[1] = target: Cytochrome P450 2E1 (Homo sapiens, UniProt P05181); conditions: bti-tn-5b1-4; also: in other assays of this panel Not Active means under 50% inhibition at 10 µM
[2] = target: D(1A) dopamine receptor (Homo sapiens, UniProt P21728); experiment: DRUGMATRIX: Dopamine D1 radioligand binding (ligand: [3H] SCH-23390); format: cell membranes, CHO, Membrane; conditions: Not Active = under 50% inhibition at 10 µM
[3] = target: Substance-P receptor (Homo sapiens, UniProt P25103); format: cell membranes, CHO, Membrane; conditions: cho; also: in other assays of this panel Not Active means under 50% inhibition at 10 µM
[4] = target: T1, Cathepsin G (Homo sapiens, UniProt P08311); format: tissue-based; conditions: neutrophil;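 also: inhibition of Cathepsin G enzyme activity, tested on an AMC-conjugated peptide substrate; in other assays of this panel Not Active means under 50% inhibition at 10 µM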
T1 sequence (P08311 whole entry): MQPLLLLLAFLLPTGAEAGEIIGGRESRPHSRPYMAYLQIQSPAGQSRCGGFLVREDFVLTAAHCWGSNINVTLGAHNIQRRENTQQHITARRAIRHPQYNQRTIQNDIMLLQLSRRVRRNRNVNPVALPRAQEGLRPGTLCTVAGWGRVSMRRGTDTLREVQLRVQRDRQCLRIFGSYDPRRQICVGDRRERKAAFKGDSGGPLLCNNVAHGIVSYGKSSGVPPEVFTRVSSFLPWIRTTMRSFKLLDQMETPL

[5] = target: T2, Alpha-1B adrenergic receptor (Rattus norvegicus, UniProt P15823); experiment: DRUGMATRIX: Alpha-1B adrenergic receptor radioligand binding (ligand: prazosin); format: cell membranes, Wistar, Liver, Membrane; conditions: Not Active = under 50% inhibition at 10 µM; for Ki: read-out: Ki
T2 sequence (P15823 whole entry): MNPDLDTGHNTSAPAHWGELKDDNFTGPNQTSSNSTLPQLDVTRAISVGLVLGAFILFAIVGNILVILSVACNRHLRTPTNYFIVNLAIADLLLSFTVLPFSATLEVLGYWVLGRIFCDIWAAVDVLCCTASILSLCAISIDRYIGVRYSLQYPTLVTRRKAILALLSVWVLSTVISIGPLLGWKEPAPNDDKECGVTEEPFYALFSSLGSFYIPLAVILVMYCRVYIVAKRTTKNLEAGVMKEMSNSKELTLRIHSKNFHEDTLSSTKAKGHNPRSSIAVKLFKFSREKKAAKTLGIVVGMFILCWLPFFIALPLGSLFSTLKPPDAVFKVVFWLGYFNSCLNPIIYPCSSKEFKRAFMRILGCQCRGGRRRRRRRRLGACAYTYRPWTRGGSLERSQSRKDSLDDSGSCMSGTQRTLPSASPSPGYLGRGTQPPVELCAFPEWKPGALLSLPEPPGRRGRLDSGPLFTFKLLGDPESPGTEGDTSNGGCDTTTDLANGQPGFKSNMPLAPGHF

[6] = DRUGMATRIX: Phosphodiesterase PDE3 enzyme inhibition (substrate: [3H]cAMP + cAMP); format: tissue-based, Homo sapiens; conditions: platelet; Not Active = under 50% inhibition at 10 µM
[7] = target: Protein kinase C alpha type (Homo sapiens, UniProt P17252); format: cell-based; conditions: sf9;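 also: inhibition of PKCalpha kinase activity measured in an enzyme assay with histone as the phosphorylation substrate; in other assays of this panel Not Active means under 50% inhibition at 10 µM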

D(1A) dopamine receptor, sequence (P21728 whole entry): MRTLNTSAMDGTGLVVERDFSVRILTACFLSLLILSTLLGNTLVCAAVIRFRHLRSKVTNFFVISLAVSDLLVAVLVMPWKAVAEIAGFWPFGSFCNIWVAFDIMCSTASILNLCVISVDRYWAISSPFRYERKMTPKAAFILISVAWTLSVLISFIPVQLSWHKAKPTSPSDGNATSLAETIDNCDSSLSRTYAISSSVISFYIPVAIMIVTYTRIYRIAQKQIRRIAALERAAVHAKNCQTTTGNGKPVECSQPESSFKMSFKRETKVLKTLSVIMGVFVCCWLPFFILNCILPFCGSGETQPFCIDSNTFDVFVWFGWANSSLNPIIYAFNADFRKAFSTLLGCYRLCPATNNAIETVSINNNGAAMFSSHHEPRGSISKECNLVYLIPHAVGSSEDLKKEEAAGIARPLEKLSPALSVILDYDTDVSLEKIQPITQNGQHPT
Substance-P receptor, sequence (P25103 whole entry): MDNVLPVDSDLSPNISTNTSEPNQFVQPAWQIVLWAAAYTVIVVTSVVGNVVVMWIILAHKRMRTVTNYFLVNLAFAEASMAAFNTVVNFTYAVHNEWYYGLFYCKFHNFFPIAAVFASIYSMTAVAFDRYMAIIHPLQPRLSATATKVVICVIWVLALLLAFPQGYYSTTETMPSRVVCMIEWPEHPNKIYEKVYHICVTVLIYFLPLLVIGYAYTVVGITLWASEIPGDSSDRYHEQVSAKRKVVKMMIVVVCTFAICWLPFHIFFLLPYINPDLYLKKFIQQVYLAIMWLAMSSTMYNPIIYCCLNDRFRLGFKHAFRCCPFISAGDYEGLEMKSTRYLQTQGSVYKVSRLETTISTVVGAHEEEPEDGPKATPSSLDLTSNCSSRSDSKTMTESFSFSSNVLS
Cytochrome P450 2E1, sequence (P05181 whole entry): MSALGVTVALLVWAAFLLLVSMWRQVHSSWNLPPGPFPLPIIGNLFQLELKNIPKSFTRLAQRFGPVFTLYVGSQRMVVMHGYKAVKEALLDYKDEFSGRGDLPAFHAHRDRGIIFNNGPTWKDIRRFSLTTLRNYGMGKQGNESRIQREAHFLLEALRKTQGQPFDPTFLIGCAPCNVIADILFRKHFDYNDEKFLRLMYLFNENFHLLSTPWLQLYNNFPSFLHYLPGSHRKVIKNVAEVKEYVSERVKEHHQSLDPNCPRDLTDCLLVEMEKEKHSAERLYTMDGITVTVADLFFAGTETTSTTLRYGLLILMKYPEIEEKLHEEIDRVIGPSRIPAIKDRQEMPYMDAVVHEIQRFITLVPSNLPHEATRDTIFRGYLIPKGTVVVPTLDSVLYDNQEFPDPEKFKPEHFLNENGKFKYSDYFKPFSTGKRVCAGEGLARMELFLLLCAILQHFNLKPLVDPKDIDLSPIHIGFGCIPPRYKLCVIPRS

CC(C(=O)O)c1ccc2oc(-c3ccc(Cl)cc3)nc2c1 (centres undefined) [BENOXAPROFEN]
Not Active: IC50 [1] | Ki [1] | IC50 ([2]; cho) | IC50 [3] | IC50 [4] | IC50 [5] | IC50 [6] | Ki [6] | IC50 [7]

O=C(O)CCNC(=O)c1ccccc1 [BETAMIPRON]
Not Active: IC50 [1] | Ki [1] | IC50 ([2]; cho) | IC50 [3] | IC50 [4] | IC50 [5] | IC50 [6] | Ki [6] | IC50 [7]

CC(=O)Oc1ccc(C(c2ccc(OC(C)=O)cc2)c2ccccn2)cc1 [BISACODYL]
Not Active: IC50 [1] | Ki [1] | IC50 ([2]; cho) | IC50 [3] | IC50 [4] | IC50 [5] | IC50 [6] | Ki [6] | IC50 [7]

Cc1cc2c(OCC(CNC(C)(C)C)OC(=O)c3ccccc3)cccc2[nH]1 (centres undefined) [BOPINDOLOL]
Not Active: IC50 [1] | Ki [1] | IC50 ([2]; cho) | IC50 [3] | IC50 [4] | IC50 [5] | IC50 [6] | Ki [6] | IC50 [7]

Brc1c(NC2=NCCN2)ccc2nccnc12 [BRIMONIDINE]
Not Active: IC50 [1] | Ki [1] | IC50 ([2]; cho) | IC50 [3] | IC50 [4] | IC50 [5] | IC50 [6] | Ki [6] | IC50 [7]

CN(C)[C@@H]1C(O)=C(C(N)=O)C(=O)[C@@]2(O)C(O)=C3C(=O)c4c(O)ccc(Cl)c4[C@@](C)(O)[C@H]3C[C@@H]12 [CHLORTETRACYCLINE]
Not Active: IC50 [1] | Ki [1] | IC50 ([2]; cho) | IC50 [3] | IC50 [4] | IC50 [5] | IC50 [6] | Ki [6] | IC50 [7]

CN/C(=N\CCSCc1nc[nH]c1C)NC#N [CIMETIDINE]
Not Active: IC50 [1] | Ki [1] | IC50 ([2]; cho) | IC50 [3] | IC50 [4] | IC50 [5] | IC50 [6] | Ki [6] | IC50 [7]

COc1cc(N)c(Cl)cc1C(=O)NC1CCN(CCCOc2ccc(F)cc2)CC1OC (centres undefined) [CISAPRIDE]
0.00865 µM: Ki [5]
Not Active: IC50 [1] | Ki [1] | IC50 ([2]; cho) | IC50 [3] | IC50 [4] | IC50 [6] | Ki [6] | IC50 [7]
0.016 µM: IC50 ([5]; read-out: IC50)

CCC(=O)O[C@]1(C(=O)CCl)[C@@H](C)C[C@H]2[C@@H]3CCC4=CC(=O)C=C[C@]4(C)[C@@]3(F)[C@@H](O)C[C@@]21C [CLOBETASOL PROPIONATE]
Not Active: IC50 [1] | Ki [1] | IC50 ([2]; cho) | IC50 [3] | IC50 [4] | IC50 [5] | IC50 [6] | Ki [6] | IC50 [7]

O=C1CN=C(c2ccccc2Cl)c2cc([N+](=O)[O-])ccc2N1 [CLONAZEPAM]
Not Active: IC50 [1] | Ki [1] | IC50 ([2]; cho) | IC50 [3] | IC50 [4] | IC50 [5] | IC50 [6] | Ki [6] | IC50 [7]

Nc1ccn([C@@H]2O[C@H](CO)[C@@H](O)[C@@H]2O)c(=O)n1 [CYTARABINE]
Not Active: IC50 [1] | Ki [1] | IC50 ([2]; cho) | IC50 [3] | IC50 [4] | IC50 [5] | IC50 [6] | Ki [6] | IC50 [7]

C[C@@H]1C[C@H]2[C@@H]3CCC4=CC(=O)C=C[C@]4(C)[C@@]3(F)[C@@H](O)C[C@]2(C)[C@H]1C(=O)CO [DESOXIMETASONE]
Not Active: IC50 [1] | Ki [1] | IC50 ([2]; cho) | IC50 [3] | IC50 [4] | IC50 [5] | IC50 [6] | Ki [6] | IC50 [7]

C[C@@H]1C[C@H]2[C@@H]3CCC4=CC(=O)C=C[C@]4(C)[C@@]3(F)[C@@H](O)C[C@]2(C)[C@@]1(O)C(=O)CO [DEXAMETHASONE]
Not Active: IC50 [1] | Ki [1] | IC50 ([2]; cho) | IC50 [3] | IC50 [4] | IC50 [5] | IC50 [6] | Ki [6] | IC50 [7]

CN(C)CC[C@@H](c1ccc(Cl)cc1)c1ccccn1 [DEXCHLORPHENIRAMINE]
15.6 µM: IC50 ([5]; read-out: IC50)
8.61 µM: Ki [5]
Not Active: IC50 [1] | Ki [1] | IC50 ([2]; cho) | IC50 [3] | IC50 [4] | IC50 [6] | Ki [6] | IC50 [7]

C[C@@H]1CC[C@@]2(OC1)O[C@H]1[C@@H](O)[C@H]3[C@@H]4CC[C@H]5C[C@@H](O[C@@H]6O[C@H](CO)[C@H](O[C@@H]7O[C@H](CO)C(O)[C@H](O[C@@H]8OC[C@@H](O)[C@H](O)[C@H]8O)[C@H]7O[C@@H]7O[C@H](CO)[C@H](O)[C@H](O[C@@H]8O[C@H](CO)[C@@H](O)[C@H](O)[C@H]8O)[C@H]7O)[C@H](O)[C@H]6O)[C@H](O)C[C@]5(C)[C@H]4CC[C@]3(C)[C@H]1[C@@H]2C (some centres undefined) [DIGITONIN]
Not Active: IC50 [1] | Ki [1] | IC50 ([2]; cho) | IC50 [3] | IC50 [4] | IC50 [5] | IC50 [6] | Ki [6] | IC50 [7]

OC(CCCN1CCCCC1)(c1ccccc1)c1ccccc1 [DIPHENIDOL]
Not Active: IC50 [1] | Ki [1] | IC50 ([2]; cho) | IC50 [3] | IC50 [4] | IC50 [6] | Ki [6] | IC50 [7]
2.64 µM: Ki [5]
4.76 µM: IC50 ([5]; read-out: IC50)

C[C@H]1O[C@@H](n2cc(F)c(=O)[nH]c2=O)[C@H](O)[C@@H]1O [DOXIFLURIDINE]
Not Active: IC50 [1] | Ki [1] | IC50 ([2]; cho) | IC50 [3] | IC50 [4] | IC50 [5] | IC50 [6] | Ki [6] | IC50 [7]

Cn1c(=O)c2c(ncn2CC(O)CO)n(C)c1=O (centres undefined) [DYPHYLLINE]
Not Active: IC50 [1] | Ki [1] | IC50 ([2]; cho) | IC50 [3] | IC50 [4] | IC50 [5] | IC50 [6] | Ki [6] | IC50 [7]

CC[C@H]1CN2CCc3cc(OC)c(OC)cc3[C@@H]2C[C@@H]1C[C@H]1NCCc2cc(OC)c(OC)cc21 [EMETINE]
Not Active: IC50 [1] | Ki [1] | IC50 ([2]; cho) | IC50 [3] | IC50 [4] | IC50 [6] | Ki [6] | IC50 [7]
1.07 µM: Ki [5]
1.93 µM: IC50 ([5]; read-out: IC50)

C[C@@H](CO)NC(=O)[C@@H]1C=C2c3cccc4[nH]cc(c34)C[C@H]2N(C)C1 [ERGONOVINE]
5.9 µM: IC50 ([2]; read-out: IC50)
Not Active: IC50 [1] | Ki [1] | IC50 [3] | IC50 [4] | IC50 [5] | IC50 [6] | Ki [6] | IC50 [7]
2.95 µM: Ki ([2]; read-out: Ki)

COC(=O)CCc1ccc(OCC(O)CNC(C)C)cc1 (centres undefined) [ESMOLOL]
Not Active: IC50 [1] | Ki [1] | IC50 ([2]; cho) | IC50 [3] | IC50 [4] | IC50 [5] | IC50 [6] | Ki [6] | IC50 [7]
